Patent publication US20240066027A1 (DOMAIN THERAPEUTICS, priority 2020, published 2024)
Counter-ions that a name gives are not always drawn.

Biological target: T1, human PAR-2 (hPAR-2) receptor expressed in HEK-293 T cells in an endogenous manner (Homo sapiens, UniProt P55085)
T1 construct: human PAR-2 (hPAR-2) receptor expressed in HEK-293 T cells in an endogenous manner; endogenous in cells; host or cells: HEK-293 T cells
T1 sequence (P55085 26-397): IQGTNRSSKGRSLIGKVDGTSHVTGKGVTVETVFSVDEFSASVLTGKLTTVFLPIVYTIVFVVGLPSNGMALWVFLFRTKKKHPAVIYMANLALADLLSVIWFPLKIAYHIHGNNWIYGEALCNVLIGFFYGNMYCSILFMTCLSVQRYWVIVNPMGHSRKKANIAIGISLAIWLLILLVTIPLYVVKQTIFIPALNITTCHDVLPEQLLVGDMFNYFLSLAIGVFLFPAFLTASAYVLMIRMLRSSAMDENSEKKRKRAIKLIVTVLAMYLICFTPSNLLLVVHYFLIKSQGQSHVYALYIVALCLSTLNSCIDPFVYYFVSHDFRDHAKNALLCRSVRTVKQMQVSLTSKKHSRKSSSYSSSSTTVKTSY
Test: In vitro human PAR-2 functional antagonist activity using calcium assays (Fluo4AM, FLIPR Tetra)
Assay type: cell-based
Conditions: HEK-293 T cells stimulated by an EC80 of the 2-Furoyl-LIGRLO-NH2 peptide after 10 min incubation with compound; 20 concentrations, duplicate, two independent experiments
Outline: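 Antagonist activity was taken as the decrease in the calcium response to an EC80 of 2-Furoyl-LIGRLO-NH2, measured over 5 min. The agonist was added after a 10 min compound-alone step on the same plate. The HEK-293 T cells express PAR-2 endogenously and were loaded with 1 μM Fluo4AM. Signals were referenced to buffer and EC80-alone controls.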

Row | SMILES | IC50 [µM]
1 | CN1CCN(C(=O)c2ccc3c(-c4ccc(Cl)c(F)c4)cn(C(C)(C)C)c3n2)C(C)(C)C1=O [Example 2, 4-(1-(tert-butyl)-3-(4-chloro-3-fluorophenyl)-1H-pyrrolo[2,3-b]pyridine-6-carbonyl)-1,3,3-trimethylpiperazin-2-one] | < 0.02
2 | Cc1cc(N2CCN(C(=O)c3ccc4c(-c5ccc(Cl)c(F)c5)cn(C)c4n3)C(C)(C)C2)nc(C)c1C(=O)O [Example 122, 6-(4-(3-(4-chloro-3-fluorophenyl)-1-methyl-1H-pyrrolo[2,3-b]pyridine-6-carbonyl)-3,3-dimethylpiperazin-1-yl)-2,4-dimethylnicotinic acid hydrochloride] | 0.02 to 10
3 | CC(C)(C)n1cc(-c2ccc(Cl)c(F)c2)c2ccc(C(=O)N3CC4(CCOC4)C3)nc21 [Example 9, (1-(tert-butyl)-3-(4-chloro-3-fluorophenyl)-1H-pyrrolo[2,3-b]pyridin-6-yl)(6-oxa-2-azaspiro[3.4]octan-2-yl)methanone] | > 10
4 | CC(C)Cn1cc(-c2cccc(Cl)c2)c2ccc(C(=O)N3CCNC(=O)C3(C)C)nc21 [Example 50, 4-[3-(3-chlorophenyl)-1-isobutyl-pyrrolo[2,3-b]pyridine-6-carbonyl]-3,3-dimethyl-piperazin-2-one] | 0.02 to 10
5 | CC1(C)C(=O)NCCN1C(=O)c1ccc2c(-c3ccc(Cl)c(F)c3)cn(CCOCC(F)(F)F)c2n1 [Example 39, 4-(3-(4-chloro-3-fluorophenyl)-1-(2-(2,2,2-trifluoroethoxy)ethyl)-1H-pyrrolo[2,3-b]pyridine-6-carbonyl)-3,3-dimethylpiperazin-2-one] | 0.02 to 10
6 | CC(C)Cc1nn(-c2ccccc2Cl)c2ccc(C(=O)N3CCNC(=O)C3(C)C)nc12 [Example 74, 4-(1-(2-chlorophenyl)-3-isobutyl-1H-pyrazolo[4,3-b]pyridine-5-carbonyl)-3,3-dimethylpiperazin-2-one] | > 10

The remaining lines, values ahead:

Row | IC50 [µM] | SMILES
7 | > 10 | Cc1cc(N2CCN(C(=O)c3ccc4c(-c5ccc(Cl)c(F)c5)cn(CC(=O)O)c4n3)C(C)(C)C2)nc(C)c1C(=O)O [Example 133, 6-(4-(1-(carboxymethyl)-3-(4-chloro-3-fluorophenyl)-1H-pyrrolo[2,3-b]pyridine-6-carbonyl)-3,3-dimethylpiperazin-1-yl)-2,4-dimethylnicotinic acid]
8 | 0.02 to 10 | Cc1cc(N(C)[C@H]2CCN(C(=O)c3ccc4c(-c5ccc(Cl)c(F)c5)cn(C(C)(C)C)c4n3)C2)nc(C)c1C(=O)O [Example 156, (S)-6-((1-(1-(tert-butyl)-3-(4-chloro-3-fluorophenyl)-1H-pyrrolo[2,3-b]pyridine-6-carbonyl)pyrrolidin-3-yl)(methyl)amino)-2,4-dimethylnicotinic acid]
9 | < 0.02 | Cc1cc(N2CCN(C(=O)c3ccc4c(n3)c(C(C)(C)C)cn4-c3ccc(Cl)c(F)c3)C(C)(C)C2)nc(C)c1C(=O)O [Example 185, 6-(4-(3-(tert-butyl)-1-(4-chloro-3-fluorophenyl)-1H-pyrrolo[3,2-b]pyridine-5-carbonyl)-3,3-dimethylpiperazin-1-yl)-2,4-dimethylnicotinic acid]
10 | < 0.02 | CCn1cc(-c2ccc(Cl)c(F)c2)c2ccc(C(=O)N3CCN(c4cc(C)c(C(=O)O)c(C)n4)CC3(C)C)nc21 [Example 129, 6-(4-(3-(4-chloro-3-fluorophenyl)-1-ethyl-1H-pyrrolo[2,3-b]pyridine-6-carbonyl)-3,3-dimethylpiperazin-1-yl)-2,4-dimethylnicotinic acid]
11 | > 10 | CCOC(=O)c1ccc(N2CCN(C(=O)c3ccn4c(-c5ccc(Cl)cc5)nc(CC(C)C)c4c3)C(C)(C)C2)nc1 [Example 218, ethyl 6-(4-(3-(4-chlorophenyl)-1-isobutylimidazo[1,5-a]pyridine-7-carbonyl)-3,3-dimethylpiperazin-1-yl)nicotinate]
12 | 0.02 to 10 | CC(C)Cn1cc(-c2ccc(Cl)c(F)c2)c2ccc(C(=O)N3CCC(CC(=O)O)CC3)cc21 [Example 204, 2-(1-(3-(4-chloro-3-fluorophenyl)-1-isobutyl-1H-indole-6-carbonyl)piperidin-4-yl)acetic acid]
